Assay results reported in ChEMBL document CHEMBL1781985, “Carbonic anhydrase inhibitors. Phenacetyl-, pyridylacetyl- and thienylacetyl-substituted aromatic sulfonamides act as potent and selective isoform VII inhibitors” (Bioorg Med Chem Lett, 2009).

Key:
Carbonic anhydrase 1 = Carbonic anhydrase 1 (Homo sapiens, UniProt P00915)
Carbonic anhydrase 2 = Carbonic anhydrase 2 (Homo sapiens, UniProt P00918)
Carbonic anhydrase 7 = Carbonic anhydrase 7 (Homo sapiens, UniProt P43166)
Carbonic anhydrase 7, sequence (P43166 whole entry): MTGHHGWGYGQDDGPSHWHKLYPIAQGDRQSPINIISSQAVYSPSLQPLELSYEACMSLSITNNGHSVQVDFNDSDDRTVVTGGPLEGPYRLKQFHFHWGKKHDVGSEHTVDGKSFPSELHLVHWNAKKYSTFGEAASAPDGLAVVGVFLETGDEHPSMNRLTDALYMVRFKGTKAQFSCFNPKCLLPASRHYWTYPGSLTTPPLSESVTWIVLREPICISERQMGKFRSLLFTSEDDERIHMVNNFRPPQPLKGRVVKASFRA

Carbonic anhydrase 1, sequence (P00915 whole entry): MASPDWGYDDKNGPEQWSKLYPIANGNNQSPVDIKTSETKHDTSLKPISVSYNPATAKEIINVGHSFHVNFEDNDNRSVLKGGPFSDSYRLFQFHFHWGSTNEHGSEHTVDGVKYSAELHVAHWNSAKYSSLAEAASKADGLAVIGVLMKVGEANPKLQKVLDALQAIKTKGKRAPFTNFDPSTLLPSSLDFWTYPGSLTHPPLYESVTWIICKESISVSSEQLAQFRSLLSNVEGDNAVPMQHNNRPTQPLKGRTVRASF

| Structure (SMILES) | Ki (Carbonic anhydrase 1) | Ki (Carbonic anhydrase 2) | Ki (Carbonic anhydrase 7) |
| --- | --- | --- | --- |
| NS(=O)(=O)c1ccc(NC(=O)Cc2cccs2)cc1 | 61 nM | 50 nM | 6.2 nM |
| NS(=O)(=O)c1ccc(CNC(=O)Cc2cccs2)cc1 | 60 nM | 52 nM | 7.1 nM |
| NS(=O)(=O)c1ccc(NC(=O)Cc2ccccc2)cc1 | 108 nM | 107 nM | 4.7 nM |
| NS(=O)(=O)c1ccc(CCNC(=O)Cc2cccs2)cc1 | 68 nM | 53 nM | 7.6 nM |
